Results: patent USRE43802E1, “α- and β-amino acid hydroxyethylamino sulfonamides useful as retroviral protease inhibitors” (G.D. Searle LLC, priority 1992, dated 2012)

These molecules were tested against T1, HIV protease (Human immunodeficiency virus type 1 group M subtype B, UniProt P04585) (assay: HIV protease enzyme assay (fluorescence, substrate 2-Ile-Nle-Phe(p-NO2)-Gln-ArgNH2)). Conditions: IC50 (nM), Table 21; HIV protease enzyme assay.
T1 construct: HIV protease is diluted in the assay buffer to a final enzyme concentration of 12.3 nanomolar, based on a molecular weight of 10,780
Assay type: biochemical
Description: The enzyme method is described below. […] The positive control is MVT-101 (Miller, M. et al, Science, 246, 1149 (1989)] The assay conditions are as follows:
Assay buffer: 20 mM sodium phosphate, pH 6.4 20% glycerol 1 mM EDTA 1 mM DTT 0.1% CHAPS
The above described substrate is dissolved in DMSO, then diluted 10 fold in assay buffer. Final substrate concentration in the assay is 80 μM.
The final concentration of DMSO is 14% and the final concentration of glycerol is 18%. The test compound is dissolved in DMSO and diluted in DMSO to 10× the test concentration; 10 μl of the enzyme preparation is added, the materials mixed and then the mixture is incubated at ambient temperature for 15 minutes. The enzyme reaction is initiated by the addition of 40 μl of substrate. The increase in fluorescence is monitored at 4 time points (0, 8, 16 and 24 minutes) at ambient temperature. Each assay is carried out in duplicate wells.

| SMILES | IC50 [nM] |
| --- | --- |
| CC(C)CCN(C[C@@H](O)[C@H](Cc1ccccc1)NC(=O)[C@@H](NC(=O)CN(C)C)C(C)(C)C)S(=O)(=O)c1ccccc1 [Entry 11] | 3 |
| CC(C)CCN(C[C@@H](O)[C@H](Cc1ccccc1)NC(=O)c1ccccc1)S(=O)(=O)c1ccccc1 [Entry 8] | 85 |
| CC(C)CCN(C[C@@H](O)[C@H](Cc1ccccc1)NC(=O)[C@@H](NC(=O)CN(C)C)C(C)(C)C)S(C)(=O)=O [Entry 6] | > 100 |

Same assay, conditions: Table 18A; HIV protease enzyme assay; read-out: IC50

| SMILES | IC50 [nM] |
| --- | --- |
| CC(C)CCN(C[C@@H](O)[C@H](Cc1ccccc1)NC(=O)OCc1ccccc1)S(=O)(=O)c1cccs1 [Entry 10] | 100 |
| CC(C)CCN(C[C@@H](O)[C@H](Cc1ccccc1)NC(=O)[C@@H](NC(=O)CN(C)C)C(C)(C)C)S(=O)(=O)c1ccccc1 [Entry 9] | 3.5 |
| CCOc1ccc(S(=O)(=O)N(CC(C)C)C[C@@H](O)[C@H](Cc2ccccc2)NC(=O)OCc2ccccc2)cc1 [Entry 12] | 20 |

Same assay, conditions: Table 19B; @ 1 uM

| SMILES | IC50 (uM) or % inhib: % inhib @ 1 uM [%] |
| --- | --- |
| CC(C)CCN(C[C@@H](O)[C@H](Cc1ccccc1)NC(=O)OCc1ccccc1)S(C)(=O)=O [Table 1a Entry 41] | 24 |
| CC(C)CN(C[C@@H](O)[C@H](Cc1ccccc1)NC(=O)OCc1ccccc1)S(C)(=O)=O [Table 1a Entry 51] | 31 |
| CC(C)CCN(C[C@@H](O)[C@H](Cc1ccccc1)NC(=O)OCc1ccccc1)S(=O)(=O)C(F)(F)F [Table 1a Entry 50] | 42 |

Same assay, conditions: Table 19B; @ 10 uM

| SMILES | IC50 (uM) or % inhib: % inhib @ 10 uM [%] |
| --- | --- |
| CC(C)CCN(C[C@@H](O)[C@H](Cc1ccccc1)NC(=O)OCc1ccccc1)S(C)(=O)=O [Table 1a Entry 41] | 74 |
| CC(C)CN(C[C@@H](O)[C@H](Cc1ccccc1)NC(=O)OCc1ccccc1)S(C)(=O)=O [Table 1a Entry 51] | 76 |
| CC(C)CCN(C[C@@H](O)[C@H](Cc1ccccc1)NC(=O)OCc1ccccc1)S(=O)(=O)C(F)(F)F [Table 1a Entry 50] | 89 |

Same assay, conditions: Table 19B; HIV protease enzyme assay; read-out: IC50 (uM) or % inhib: IC50

| SMILES | IC50 [nM] |
| --- | --- |
| C=CCOC(=O)N[C@@H](Cc1ccccc1)[C@H](O)CN(CC(C)C)S(=O)(=O)c1ccc(OC)cc1 [Table 5 Entry 33] | 4.4 |
| CC(C)CCN(CC(O)C(Cc1ccccc1)NC(=O)C(N)C(C)(C)C)S(=O)(=O)c1ccccc1 (stereo not shown) [Table 11 Entry 1] | 130 |
| CCCS(=O)(=O)N(CCC(C)C)C[C@@H](O)[C@H](Cc1ccccc1)NC(=O)OCc1ccccc1 [Table 1a Entry 40] | 210 |
| CC(C)CCN(C[C@@H](O)[C@H](Cc1ccccc1)NC(=O)[C@@H](NC(=O)OCc1ccccc1)C(C)C)S(=O)(=O)c1ccccc1 [Table 5 Entry 1] | 1.4 |
| CC(C)CCN(C[C@@H](O)[C@H](Cc1ccccc1)NC(=O)[C@@H](NC(=O)OCc1ccccc1)C(C)(C)C)S(=O)(=O)c1ccccc1 [Table 5 Entry 22] | 1.8 |

Same assay, conditions: Table 20; @ 1 μM

| SMILES | IC50 (uM) or % inhibition: % inhibition @ 1 μM [% @ 1 μM] |
| --- | --- |
| COc1ccc(S(=O)(=O)N(CC(C)C)CC(O)C(Cc2ccccc2)NC(=O)c2ccccc2CS(C)(=O)=O)cc1 (stereo not shown) [Table 5A Entry 20] | 85 |

Same assay, conditions: Table 20; @ 10 μM

| SMILES | IC50 (uM) or % inhibition: % inhibition @ 10 μM [% @ 10 μM] |
| --- | --- |
| COc1ccc(S(=O)(=O)N(CC(C)C)CC(O)C(Cc2ccccc2)NC(=O)c2ccccc2S(C)(=O)=O)cc1 (stereo not shown) [Table 5A Entry 17] | 59 |

Same assay, conditions: Table 20; HIV protease enzyme assay; read-out: IC50 (uM) or % inhibition: IC50

| SMILES | IC50 [nM] |
| --- | --- |
| COc1ccc(S(=O)(=O)N(CC(C)C)CC(O)C(Cc2ccccc2)NC(=O)c2ccc(S(C)(=O)=O)cc2)cc1 (stereo not shown) [Table 5A Entry 19] | 92 |
| COc1ccc(S(=O)(=O)N(CC(C)C)CC(O)C(Cc2ccccc2)NC(=O)c2cccc(C)c2C)cc1 (stereo not shown) [Table 5A Entry 16] | 8 |
| CCc1ccccc1C(=O)NC(Cc1ccccc1)C(O)CN(CC(C)C)S(=O)(=O)c1ccc(OC)cc1 (stereo not shown) [Table 5A Entry 13] | 9.8 |
| COc1ccc(S(=O)(=O)N(CC(C)C)CC(O)C(Cc2ccccc2)NC(=O)C2CCCC2)cc1 (stereo not shown) [Table 5A Entry 1] | 40 |
| CC(C)CN(CC(O)C(Cc1ccccc1)NC(=O)c1ccccc1)S(=O)(=O)c1ccccc1 (stereo not shown) [Table 5A Entry 24] | 47 |

Same assay, conditions: Table 21; HIV protease enzyme assay; read-out: IC50

| SMILES | IC50 [nM] |
| --- | --- |
| CC(C)CN(C[C@@H](O)[C@H](Cc1ccccc1)NC(=O)OCc1cncnc1)S(=O)(=O)c1ccc(O)cc1 [Example 41] | 3 |
| COc1ccc(S(=O)(=O)N(CC(C)C)C[C@@H](O)[C@H](Cc2ccccc2)NC(=O)COc2ccccc2C)cc1 [Example 75] | 8 |
| COc1ccc(S(=O)(=O)N(CC(C)C)C[C@@H](O)[C@H](Cc2ccccc2)NC(=O)c2ccc3nc(N)sc3c2)cc1 [Example 76] | 5 |
| COCCCN(C[C@@H](O)[C@H](Cc1ccccc1)NC(=O)OCc1ccccc1)S(=O)(=O)c1ccccc1 [Entry 9] | 53 |
| CC(C)CN(C[C@@H](O)[C@H](Cc1ccccc1)NC(=O)OCc1cccnc1)S(=O)(=O)c1ccc2c(c1)CCO2 [Example 66] | 4 |
| CC(C)CN(C[C@@H](O)[C@H](Cc1ccccc1)NC(=O)O[C@H]1CCSC1)S(=O)(=O)c1ccc(O)cc1 [Example 42] | 2 |
| CC(C)CN(C[C@@H](O)[C@H](Cc1ccccc1)NC(=O)OCc1ccoc1)S(=O)(=O)c1ccc(N)cc1 [Example 60] | 5 |
| COc1ccc(S(=O)(=O)N(CC(C)C)C[C@@H](O)[C@H](Cc2ccccc2)NC(=O)OCc2ccc(N)nc2)cc1 [Example 38] | 4 |
| COc1ccc(S(=O)(=O)N(CC(C)C)C[C@@H](O)[C@H](Cc2ccccc2)NC(=O)c2cc([N+](=O)[O-])ccc2C)cc1 [Example 53] | 21 |
| CC(C)CN(C[C@@H](O)[C@H](Cc1ccccc1)NC(=O)OCc1cncs1)S(=O)(=O)c1cccc(N)c1 [Example 64] | 7 |
| CCC(C)[C@H](NC(=O)CN(C)C)C(=O)N[C@@H](Cc1ccccc1)[C@H](O)CN(CC(C)C)S(=O)(=O)c1ccc(OC)cc1 (stereo partly shown) [Example 13] | 3 |
| Cc1cc(O)ccc1C(=O)N[C@@H](Cc1ccccc1)[C@H](O)CN(CC(C)C)S(=O)(=O)c1ccc2c(c1)OCO2 [Example 72] | 5 |
| CC(C)CN(C[C@@H](O)[C@H](Cc1ccccc1)NC(=O)OCc1ccccc1)S(=O)(=O)c1ccc2nc(N)sc2c1 [Example 77] | 2 |
| COc1ccc(S(=O)(=O)N(CC(C)C)C[C@@H](O)[C@H](Cc2ccccc2)NC(=O)O[C@H]2CCSC2)cc1 [Example 46] | 2 |
| Cc1c(O)cccc1C(=O)N[C@@H](Cc1ccccc1)[C@H](O)CN(CC(C)C)S(=O)(=O)c1cccc(N)c1 [Example 65] | 4 |
| COc1ccc(S(=O)(=O)N(CC(C)C)C[C@@H](O)[C@H](Cc2ccccc2)NC(=O)c2cc(N(C)C)ccc2C)cc1 [Example 55] | 37 |
| COc1ccc(S(=O)(=O)N(CC(C)C)C[C@@H](O)[C@H](Cc2ccccc2)NC(=O)OCc2ccccn2)cc1 [Example 21] | 73 |
| CC(C)CN(C[C@@H](O)[C@H](Cc1ccccc1)NC(=O)OCc1cncs1)S(=O)(=O)c1ccc2c(c1)OCO2 [Example 70] | 5 |
| Cc1c(N)cccc1C(=O)N[C@@H](Cc1ccccc1)[C@H](O)CN(CC(C)C)S(=O)(=O)c1ccc2c(c1)CCO2 [Example 68] | 7 |
| COc1ccc(S(=O)(=O)N(CC(C)C)C[C@@H](O)[C@H](Cc2ccccc2)NC(=O)COc2c(C)cccc2C)cc1 [Example 74] | 3 |
| Cc1c(N)cccc1C(=O)N[C@@H](Cc1ccccc1)[C@H](O)CN(CC(C)C)S(=O)(=O)c1ccc2c(c1)OCO2 [Example 71] | 5 |
| CC(C)CN(C[C@@H](O)[C@H](Cc1ccccc1)NC(=O)OCc1cccnc1)S(=O)(=O)c1ccc(O)cc1 [Example 20] | 4 |
| COc1ccc(S(=O)(=O)N(CC(C)C)C[C@@H](O)[C@H](Cc2ccccc2)NC(=O)OCc2cncs2)cc1 [Example 56] | 4 |
| CC(C)CN(C[C@@H](O)[C@H](Cc1ccccc1)NC(=O)O[C@H]1CCOC1)S(=O)(=O)c1ccc(O)cc1 [Example 45] | 2 |
| CC(C)CN(C[C@@H](O)[C@H](Cc1ccccc1)NC(=O)O[C@H]1CCS(=O)(=O)C1)S(=O)(=O)c1ccc(O)cc1 [Example 43] | 4 |
